In publication PMC4900628, “Critical Evaluation of P2X7 Receptor Antagonists in Selected Seizure Models” (PLoS ONE, 2016):

Tested on: Iba 1 and GFAP immunoreactivity
Assay: Iba 1 and GFAP immunohistochemistry, hippocampus of PTZ-kindled rats
Format: in vivo
Settings: hippocampus CA3, 24h after the 25th PTZ injection, pre-treated with AFC or JNJ
Description: One day after the last kindling session (after the 25th injection), vehicle/PTZ and compound/PTZ-treated rats as well as vehicle-only-treated or non-treated (naïve) rats as controls were transcardially perfused under deep CO2-anesthesia with 0.9% NaCl-solution, 2% paraformaldehyde (PFA, in 0.1 M sodium acetate buffer, pH 6.5) and 2% PFA/0.1% glutaraldehyde (in 0.1 M sodium borate buffer, pH 8.5) (see [73]). Brains were removed immediately and placed for 24 h in 2% PFA without glutaraldehyde (in 0.1 M sodium borate buffer, pH 8.5) at 4°C for post-fixation. […]
For immunohistochemical studies, free-floating slices were incubated in 0.1 M Sørensen’s phosphate buffer (SPP) containing 1% H2O2 for 25 min. […] The immunoreactivity was evaluated using a light microscope (Axioskop, Zeiss) equipped with a CCD digital camera (AxioCam, ICc 1, Zeiss). For quantitative analysis of the GFAP and Iba 1-staining, images (20x magnification) from the hippocampal CA3 region of vehicle-only (controls) and vehicle/PTZ-treated animals (n = 10) were recorded at constant microscope adjustment and were evaluated with the LSM (LSM 510 Meta, Zeiss) using the semiautomatic image analysis software “Histogram” function. Significant differences were determined by calculating the abundance of densely stained pixels (pixel values lower than 67% of the background) using a two-tailed Wilcoxon rank sum test. […]

Q: How did the “immunostaining for Iba 1 and GFAP compared to vehicle/PTZ-treated animals” value turn out when `O=C(NCC1(N2CCN(c3ccccc3)CC2)CCOCC1)c1cccnc1Sc1ccccc1` [JNJ-47965567, N-[[4-(4-phenyl-piperazin-1-yl)tetrahydro-2H-pyran-4-yl]-methyl]-2-(phenyl-thio) nicotinamide] was run?
A: clearly reduced
